Here are results for 14 compounds from ChEMBL document CHEMBL1126540, “Synthesis and evaluation of 3-carboxymethyl steroids as inhibitors of human prostatic steroid 5-reductase” (Bioorg Med Chem Lett, 1993).

The assay can be described thus: Inhibition of Human prostatic Steroid 5-alpha-reductase. The conditions noted are these: read-out: Ki app.

In the case of `CC(C)N(C(=O)[C@H]1CCC2C3CCC4=C/C(=C\C(=O)O)CC[C@]4(C)C3CC[C@@]21C)C(C)C` (some centres undefined), the Ki was over 5000 nM.
For `CC(C)N(C(=O)[C@H]1CC[C@H]2[C@@H]3CCc4cc(C(F)(F)C(=O)O)ccc4[C@H]3CC[C@]12C)C(C)C` the value was 40 nM; for `CC(C)N(C(=O)[C@H]1CCC2C3CC[C@H]4CC(CC(=O)O)=CC[C@]4(C)C3CC[C@@]21C)C(C)C` (some centres undefined), 40 nM; for `CC(C)N(C(=O)[C@H]1CC[C@H]2[C@@H]3CCc4cc(CC(=O)O)ccc4[C@H]3CC[C@]12C)C(C)C`, 20 nM.
With `CC(C)N(C(=O)[C@H]1CC[C@H]2[C@@H]3CC[C@H]4C/C(=C/C(=O)O)CC[C@]4(C)[C@H]3CC[C@]12C)C(C)C`, the Ki is over 5000 nM.
To `CC(C)N(C(=O)[C@H]1CC[C@H]2[C@@H]3CCc4cc(CS(=O)(=O)O)ccc4[C@H]3CC[C@]12C)C(C)C` belongs over 5000 nM.
With `CC(C)N(C(=O)[C@H]1CCC2C3CC=C4C=C(C(=O)O)CC[C@]4(C)C3CC[C@@]21C)C(C)C` (some centres undefined), the Ki is 7 nM.
Turning to `CC(C)N(C(=O)[C@H]1CCC2C3CC[C@H]4C=C(CC(=O)O)CC[C@]4(C)C3CC[C@@]21C)C(C)C` (some centres undefined), the Ki was 85 nM.
Take `CC(C)N(C(=O)[C@H]1CC[C@H]2[C@@H]3CCc4cc(C(=O)C(=O)O)ccc4[C@H]3CC[C@]12C)C(C)C`: the Ki is 150 nM.
To `CC(C)N(C(=O)[C@H]1CCC2C3CC=C4C=C(CC(=O)O)CC[C@]4(C)C3CC[C@@]21C)C(C)C` (some centres undefined) belongs 450 nM; to `CC(C)N(C(=O)[C@H]1CCC2C3CC[C@H]4C=C(C(=O)O)CC[C@]4(C)C3CC[C@@]21C)C(C)C` (some centres undefined), 30 nM; to `CC(C)N(C(=O)[C@H]1CC[C@H]2[C@@H]3CCc4cc(CCC(=O)O)ccc4[C@H]3CC[C@]12C)C(C)C`, 290 nM.
Regarding `CC(C)N(C(=O)[C@H]1CCC2C3CCC4=C/C(=C/C(=O)O)CC[C@]4(C)C3CC[C@@]21C)C(C)C` (some centres undefined), the Ki was over 5000 nM.
For `CC(C)N(C(=O)[C@H]1CC[C@H]2[C@@H]3CCc4cc(CP(=O)(O)O)ccc4[C@H]3CC[C@]12C)C(C)C` the value was 740 nM.
